Experimental data as given in US9914730B2, “Azaquinazoline inhibitors of Atypical protein Kinase C” (Ignyta, Inc., priority 2012, dated 2018).
Where a name gives a salt, the structure may show the parent alone.

Each compound was assayed against T1, full-length human PKCι (Homo sapiens, UniProt P41743) (assay: PKCι IC50 IMAP assay, full-length PKCι at 150 μM ATP). Conditions: read-out: IC50 in IMAP assay against full length PKCi at 150 μM ATP.
T1 construct: Recombinant, full-length human PKCι expressed in Sf21 insect cells is also commercially available; purchased; host or cells: Sf21 insect cells
T1 sequence (P41743 1-596): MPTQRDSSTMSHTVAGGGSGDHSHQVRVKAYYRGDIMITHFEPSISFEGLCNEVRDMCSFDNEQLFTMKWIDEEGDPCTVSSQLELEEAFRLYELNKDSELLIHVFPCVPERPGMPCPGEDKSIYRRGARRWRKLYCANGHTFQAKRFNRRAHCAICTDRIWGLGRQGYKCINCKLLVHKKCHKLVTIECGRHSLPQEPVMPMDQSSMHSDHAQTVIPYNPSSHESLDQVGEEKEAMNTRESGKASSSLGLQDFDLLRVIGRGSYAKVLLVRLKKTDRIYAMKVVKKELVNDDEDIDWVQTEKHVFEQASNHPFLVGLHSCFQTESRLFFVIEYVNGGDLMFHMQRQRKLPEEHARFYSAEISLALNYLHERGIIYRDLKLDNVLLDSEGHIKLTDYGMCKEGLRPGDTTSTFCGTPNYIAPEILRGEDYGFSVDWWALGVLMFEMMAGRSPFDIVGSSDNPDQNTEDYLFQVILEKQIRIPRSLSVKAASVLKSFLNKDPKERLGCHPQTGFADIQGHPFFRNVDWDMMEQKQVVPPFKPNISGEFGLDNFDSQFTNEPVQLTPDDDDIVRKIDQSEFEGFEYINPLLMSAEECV
Type: biochemical
In short: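 Recombinant full-length human PKCι (Sf21-expressed, typically 15 pM) phosphorylated 100 nM 5FAM-labelled PKCε pseudosubstrate-derived peptide with 150 μM ATP (5× KM^APP) in 18 mM tris-HCl pH7.5, 9 mM MgCl2, EGTA, DTT, 4% DMSO. After 60 min at room temperature, IMAP binding reagent was added for 2 h and fluorescence polarisation read.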

IC50	Structure (SMILES)
< 0.1 µM	CN1CCN(c2cccc(Nc3cc(-c4nc(N5CC[C@H](CO)C5)c5c(C6CC6)cncc5n4)ccn3)c2)CC1 [Example 722, [(S)-1-(5-Cyclopropyl-2-{2-[3-(4-methyl-piperazin-1-yl)-phenylamino]-pyridin-4-yl}-pyrido[3,4-d]pyrimidin-4-yl)-pyrrolidin-3-yl]-methanol]
1 to 10 µM	CCNC(=O)C1CCN(c2nc(-c3ccnc(Nc4c(F)cccc4F)c3)nc3cncc(C4CC4)c23)CC1 [Example 723, 1-{5-Cyclopropyl-2-[2-(2,6-difluoro-phenylamino)-pyridin-4-yl]-pyrido[3,4-d]pyrimidin-4-yl}-piperidine-4-carboxylic acid ethylamide]
< 0.1 µM	Fc1cc(C2CC2)nc(F)c1Nc1cc(-c2nc(N3CCNCC3)c3c(C4CC4)cncc3n2)ccn1 [Example 724, (6-Cyclopropyl-2,4-difluoro-pyridin-3-yl)-[4-(5-cyclopropyl-4-piperazin-1-yl-pyrido[3,4-d]pyrimidin-2-yl)-pyridin-2-yl]-amine; bis-trifluoroacetic salt]
< 0.1 µM	Fc1nc(C2CC2)ccc1Nc1cc(-c2nc(N3CCNCC3)c3c(C4CC4)cncc3n2)ccn1 [Example 725, (6-Cyclopropyl-2-fluoro-pyridin-3-yl)-[4-(5-cyclopropyl-4-piperazin-1-yl-pyrido[3,4-d]pyrimidin-2-yl)-pyridin-2-yl]-amine; bis-trifluoroacetic acid salt]
0.1 to 1 µM	CNC(=O)C1CCN(c2nc(-c3ccnc(Nc4c(F)cccc4F)c3)nc3cncc(C4CC4)c23)C1 (stereo not drawn) [Example 726, 1-{5-Cyclopropyl-2-[2-(2,6-difluoro-phenylamino)-pyridin-4-yl]-pyrido[3,4-d]pyrimidin-4-yl}-pyrrolidine-3-carboxylic acid methylamide]
< 0.1 µM	CN1CCN(c2cccc(Nc3cc(-c4nc(N5CC[C@H](O)C5)c5c(C6CC6)cncc5n4)ccn3)c2)CC1 [Example 727, (S)-1-(5-Cyclopropyl-2-{2-[3-(4-methyl-piperazin-1-yl)-phenylamino]-pyridin-4-yl}-pyrido[3,4-d]pyrimidin-4-yl)-pyrrolidin-3-ol]
0.1 to 1 µM	CN1CCN(c2nc(-c3ccnc(Nc4cccc(N5CCC(O)CC5)c4)c3)nc3cncc(C4CC4)c23)CC1 [Example 728, 1-(3-{4-[5-Cyclopropyl-4-(4-methyl-piperazin-1-yl)-pyrido[3,4-d]pyrimidin-2-yl]-pyridin-2-ylamino}-phenyl)-piperidin-4-ol]
< 0.1 µM	OC1CCN(c2nc(-c3ccnc(Nc4cccc(N5CCNCC5)c4)c3)nc3cncc(C4CC4)c23)CC1 [Example 729, 1-{5-Cyclopropyl-2-[2-(3-piperazin-1-yl-phenylamino)-pyridin-4-yl]-pyrido[3,4-d]pyrimidin-4-yl}-piperidin-4-ol]
< 0.1 µM	CC(Nc1cc(-c2nc(N3CCNCC3)c3c(C4CC4)cncc3n2)ccn1)c1cnn(C)c1 (stereo not drawn) [Example 730, [4-(5-Cyclopropyl-4-piperazin-1-yl-pyrido[3,4-d]pyrimidin-2-yl)-pyridin-2-yl]-[1-(1-methyl-1H-pyrazol-4-yl)-ethyl]-amine]
< 0.1 µM	Fc1nc(N2CCOCC2)ccc1Nc1cc(-c2nc(N3CCNCC3)c3c(C4CC4)cncc3n2)ccn1 [Example 731, [4-(5-Cyclopropyl-4-piperazin-1-yl-pyrido[3,4-d]pyrimidin-2-yl)-pyridin-2-yl]-(2-fluoro-6-morpholin-4-yl-pyridin-3-yl)-amine]
< 0.1 µM	OC1CCN(c2nc(-c3ccnc(Nc4cnn(CC5CCNCC5)c4)c3)nc3cncc(C4CC4)c23)CC1 [Example 732, 1-{5-Cyclopropyl-2-[2-(1-piperidin-4-ylmethyl-1H-pyrazol-4-ylamino)-pyridin-4-yl]-pyrido[3,4-d]pyrimidin-4-yl}-piperidin-4-ol]
1 to 10 µM	Clc1cc(-c2nc(N3CCN[C@@H](COCc4ccccc4)C3)c3c(C4CC4)cncc3n2)ccn1 [Example 733, 4-((R)-3-Benzyloxymethyl-piperazin-1-yl)-2-(2-chloro-pyridin-4-yl)-5-cyclopropyl-pyrido[3,4-d]pyrimidine]
< 0.1 µM	c1cc(Nc2cc(-c3nc(N4CCNCC4)c4c(C5CC5)cncc4n3)ccn2)cc(C2CC2)c1 [Example 734, (3-Cyclopropyl-phenyl)-[4-(5-cyclopropyl-4-piperazin-1-yl-pyrido[3,4-d]pyrimidin-2-yl)-pyridin-2-yl]-amine]
0.1 to 1 µM	CN1CCN(C(=O)C2CCN(c3nc(-c4ccnc(Nc5c(F)cccc5F)c4)nc4cncc(C5CC5)c34)CC2)CC1 [Example 735, (1-{5-Cyclopropyl-2-[2-(2,6-difluoro-phenylamino)-pyridin-4-yl]-pyrido[3,4-d]pyrimidin-4-yl}-piperidin-4-yl)-(4-methyl-piperazin-1-yl)-methanone]
< 0.1 µM	CN(C)CCNC(=O)C1CCN(c2nc(-c3ccnc(Nc4c(F)cccc4F)c3)nc3cncc(C4CC4)c23)CC1 [Example 736, 1-{5-Cyclopropyl-2-[2-(2,6-difluoro-phenylamino)-pyridin-4-yl]-pyrido[3,4-d]pyrimidin-4-yl}-piperidine-4-carboxylic acid (2-dimethylamino-ethyl)-amide]
< 0.1 µM	CN1CCN(c2cccc(Nc3cc(-c4nc(N5CCC[C@H](O)C5)c5c(C6CC6)cncc5n4)ccn3)c2)CC1 [Example 737, (S)-1-(5-Cyclopropyl-2-{2-[3-(4-methyl-piperazin-1-yl)-phenylamino]-pyridin-4-yl}-pyrido[3,4-d]pyrimidin-4-yl)-piperidin-3-ol]
< 0.1 µM	CN1CCN(c2cccc(Nc3cc(-c4nc(N5CC[C@@H](O)C5)c5c(C6CC6)cncc5n4)ccn3)c2)CC1 [Example 738, (R)-1-(5-Cyclopropyl-2-{2-[3-(4-methyl-piperazin-1-yl)-phenylamino]-pyridin-4-yl}-pyrido[3,4-d]pyrimidin-4-yl)-pyrrolidin-3-ol]
0.1 to 1 µM	COCCNC(=O)C1CCN(c2nc(-c3ccnc(Nc4c(F)cccc4F)c3)nc3cncc(C4CC4)c23)CC1 [Example 739, 1-{5-Cyclopropyl-2-[2-(2,6-difluoro-phenylamino)-pyridin-4-yl]-pyrido[3,4-d]pyrimidin-4-yl}-piperidine-4-carboxylic acid (2-methoxy-ethyl)-amide]
0.1 to 1 µM	N#Cc1cc(F)c(Nc2cc(-c3nc(N4CCNCC4)c4c(C5CC5)cncc4n3)ccn2)c(F)c1 [Example 740, 4-[4-(5-Cyclopropyl-4-piperazin-1-yl-pyrido[3,4-d]pyrimidin-2-yl)-pyridin-2-ylamino]-3,5-difluoro-benzonitrile]
0.1 to 1 µM	O=C(C1CCN(c2nc(-c3ccnc(Nc4c(F)cccc4F)c3)nc3cncc(C4CC4)c23)CC1)N1CCNCC1 [Example 741, (1-{5-Cyclopropyl-2-[2-(2,6-difluoro-phenylamino)-pyridin-4-yl]-pyrido[3,4-d]pyrimidin-4-yl}-piperidin-4-yl)-piperazin-1-yl-methanone]
< 0.1 µM	NC(=O)c1ccc(Nc2cc(-c3nc(N4CCNCC4)c4c(C5CC5)cncc4n3)ccn2)cc1 [Example 742, 4-[4-(5-Cyclopropyl-4-piperazin-1-yl-pyrido[3,4-d]pyrimidin-2-yl)-pyridin-2-ylamino]-benzamide]
< 0.1 µM	c1ccn2nc(Nc3cc(-c4nc(N5CCNCC5)c5c(C6CC6)cncc5n4)ccn3)nc2c1 [Example 743, [4-(5-Cyclopropyl-4-piperazin-1-yl-pyrido[3,4-d]pyrimidin-2-yl)-pyridin-2-yl]-[1,2,4]triazolo[1,5-a]pyridin-2-yl-amine]
< 0.1 µM	CNCCNC(=O)C1CCN(c2nc(-c3ccnc(Nc4c(F)cccc4F)c3)nc3cncc(C4CC4)c23)CC1 [Example 744, 1-{5-Cyclopropyl-2-[2-(2,6-difluoro-phenylamino)-pyridin-4-yl]-pyrido[3,4-d]pyrimidin-4-yl}-piperidine-4-carboxylic acid (2-methylamino-ethyl)-amide]
< 0.1 µM	N#Cc1cccc(Nc2cc(-c3nc(N4CCNCC4)c4c(C5CC5)cncc4n3)ccn2)n1 [Example 746, 6-[4-(5-Cyclopropyl-4-piperazin-1-yl-pyrido[3,4-d]pyrimidin-2-yl)-pyridin-2-ylamino]-pyridine-2-carbonitrile]
< 0.1 µM	CN1CCN(c2cccc(Nc3cc(-c4nc(N5CCC(O)(O)C(F)(F)C5)c5c(C6CC6)cncc5n4)ccn3)c2)CC1 [Example 747, 1-(5-Cyclopropyl-2-{2-[3-(4-methyl-piperazin-1-yl)-phenylamino]-pyridin-4-yl}-pyrido[3,4-d]pyrimidin-4-yl)-3,3-difluoro-piperidine-4,4-diol]
< 0.1 µM	Fc1cc(F)c(Nc2cc(-c3nc(N4CCNCC4)c4c(C5CC5)cncc4n3)ccn2)cn1 [Example 748, [4-(5-Cyclopropyl-4-piperazin-1-yl-pyrido[3,4-d]pyrimidin-2-yl)-pyridin-2-yl]-(4,6-difluoro-pyridin-3-yl)-amine]
< 0.1 µM	Fc1cnc(F)c(Nc2cc(-c3nc(N4CCNCC4)c4c(C5CC5)cncc4n3)ccn2)c1 [Example 749, [4-(5-Cyclopropyl-4-piperazin-1-yl-pyrido[3,4-d]pyrimidin-2-yl)-pyridin-2-yl]-(2,5-difluoro-pyridin-3-yl)-amine]
